Patent US7557100B2, “Antibacterial agents” (Pfizer Inc., priority 2005, dated 2009)
≈ marks a conversion by molar mass, not a printed value.

Key:
[1] = tested on: Staphylococcus aureus SA-1 (UC-76); experiment: Microbroth dilution MIC testing against S. aureus; assay type: cell-based; conditions: S. aureus UC76, CAMHB, 35° C., 16 to 24 hours, read-out: Minimum Inhibitory Concentration S. aureus UC76
Method: (§1) In this example, the in vitro antibacterial activity of selected compounds was determined against S. aureus and H. influenzae. Except for clarifying or modifying statements, MIC testing followed procedures recommended by the NCCLS^1-2 or followed the descriptions cited below.
(§2) Bacterial Cultures At least the following organisms are included in the screen: Staphylococcus aureus SA-1 (UC-76) and H. influenzae HI-3542. Incubations were at 35° C. Stock bacterial cultures were maintained on Tryptic Soy Agar containing 5% Sheep Blood (BD, Becton Dickinson Microbiology Systems, Cockeysville, Md.), anaerobes were maintained on Anaerobic Blood Agar plates—CDC Formulation (BD), and fastidious organisms were maintained on Chocolate Agar II Plates (BD). Specific conditions of handling are listed below.
(§3) Standardized Organism Inocula Frozen stock cultures were used as the initial source of organisms for performing microbroth dilution MIC testing. Stock cultures were passed on their standard growth medium for at least 1 growth cycle (18 24 hours) prior to their use.
(§4) Most bacteria, unless otherwise noted, were prepared directly from agar plates in 10 mL aliquots of the appropriate broth medium. Bacterial cultures were adjusted to the opacity of a 0.5 McFarland Standard (optical density value of 0.28-0.33 on a Perkin-Elmer Lambda EZ150 Spectrophotometer Wellesley, Mass., set at a wavelength of 600 nm).). The adjusted cultures were diluted 400 fold (0.25 mL inoculum+100 mL broth) in growth media to produce a starting suspension of approximately 5×10^5 colony forming units (CFU)/mL. Unless otherwise noted, bacterial strains were tested in cation adjusted Mueller Hinton Broth (CAMHB).
(§5) Test Compound (“Drug”) Preparation Compounds were solubilized in DMSO. Drug stock solutions were prepared on the day of testing. Drugs were weight corrected for assay content where necessary.
(§6) Drug Dilution Tray Preparation Microbroth dilution stock plates were prepared in two dilution series, 64 to 0.06 μg drug/mL and 0.25 to 0.00025 μg drug/mL. For the high concentration series, 200 μL of stock solution (2 mg/mL) was added to duplicate rows of a 96-well microtiter plate. This was used as the first well in the dilution series. Serial two-fold decremental dilutions were made using a BioMek FX robot (Beckman Coulter Inc., Fullerton, Calif.) with 10 of the remaining 11 wells, each of which contained 100 μL of the appropriate solvent/diluent. Row 12 contained solvent/diluent only and served as the control. For tube one of the low concentration series, 200 μL of an 8 μg/mL stock was added to duplicate rows of a 96-well plate. Serial two-fold dilutions were made as described above.
(§7) Daughter plates were spotted (3.2 μL/well) from the stock plates listed above using the BioMek FX robot and were either used immediately or frozen at −70° C. until use.
(§8) Plate Inoculation Aerobic organisms were inoculated (100 μL volumes) into the thawed plates using the BioMek FX robot. The inoculated plates were placed in stacks of no more than 5 and covered with an empty plate. These plates were incubated 16 to 24 hours in ambient atmosphere according to CLSI guidelines^2.
(§9) Reading the Test After inoculation and incubation, the degree of bacterial growth was estimated visually with the aid of a Test Reading Mirror (Dynex Technologies 220 16) in a darkened room with a single light shining directly through the top of the microbroth tray. The MIC was the lowest concentration of drug that prevented macroscopically visible growth under the conditions of the test. Testing was performed in duplicate. When the MIC values in duplicate tests varied by 1 well (2 fold), the lower values were reported. If the MICs varied by 2 dilutions, the middle value was reported. Greater than this 4 fold variance called for the test to be repeated, after which a similar determination was applied to all values.

[2] = tested on: H. influenzae HI-3542; experiment: Microbroth dilution MIC testing against H. influenzae; assay type: cell-based; conditions: HI3542, H. influenzae 3542, Haemophilus Test Medium, 35° C., 16 to 24 hours, read-out: Minimum Inhibitory Concentration H. influenzae 3542
Method: as §1, §2
Haemophilus was maintained on Chocolate Agar II Plates at room temperature in a candle jar providing a 3 5% CO2 atmosphere.
as §3, §4
Haemophilus influenzae strains were grown on Chocolate Agar II Plates and tested in Haemophilus Test Medium (Remel, Lenexa, Kans.).
as §5, §6, §7, §8
as §9, with “Greater than this 4 fold variance called for the test to be repeated, after which a similar determination was applied to all values.” left out

Compound | MIC [1] | MIC [2]
COc1cnc(-c2cc3c(c(F)c2F)N2C[C@@H](C)O[C@@H](C)[C@@H]2C2(C3)C(=O)NC(=O)NC2=O)cn1 [Compound 25, (2R,4S,4aS)-9,10-difluoro-8-(5-methoxypyrazin-2-yl)-2,4-dimethyl-1,2,4,4a-tetrahydro-2′H,6H-spiro[1,4-oxazino[4,3-a]quinoline-5,5′-pyrimidine]-2′,4′,6′(1′H,3′H)-trione] | 0.125 µg/mL (≈ 0.264 µM) | 0.5 µg/mL (≈ 1.06 µM)
CCOc1cnc(-c2cc3c(c(F)c2F)N2C[C@@H](C)O[C@@H](C)[C@@H]2C2(C3)C(=O)NC(=O)NC2=O)cn1 [Compound 26, (2R,4S,4aS)-8-(5-ethoxypyrazin-2-yl)-9,10-difluoro-2,4-dimethyl-1,2,4,4a-tetrahydro-2′H,6H-spiro[1,4-oxazino[4,3-a]quinoline-5,5′-pyrimidine]-2′,4′,6′(1′H,3′H)-trione] | 0.25 µg/mL (≈ 0.513 µM) | 1 µg/mL (≈ 2.05 µM)
